Marks after values point to notes of the source that are not given here.

For experiment [1], the system named is PD-LID rat model (6-OHDA-lesioned rats). Kind of experiment: Dyskinesia-like symptoms (AIMs score) after transdermal tandospirone tape agent in PD-LID rat model. Format: in vivo. An excerpt: A rat striatum dopaminergic denervation model using topical administration of 6-hydroxydopamine (hereinafter, also referred to as “6-OHDA”) to one side of the brain is known as a typical experimental model for PD-LID (rats treated on one side with 6-OHDA (6-OHDA-lesioned rats)). Dyskinesia-like abnormal involuntary movements (AIMs) manifest in said model with repeated administration of levodopa (Lundblad et al., European Journal of Neuroscience, 2002, 15: 120-132, Winkler et al., Neurobiology of Disease, 2002, 10: 165-186).
Wistar male rats (12-week old, Japan SLC, Inc.) were used for the preparation of animal models. Desipramine hydrochloride (25 mg/kg; Wako Pure Chemical) was intraperitoneally administered. After 30 minutes from the administration, the rats were subjected to isoflurane inhalational anesthetic using a general anesthesia apparatus for experimental animals. Under isoflurane anesthesia, the rats were immobilized to a brain stereotaxic instrument. The skin on the head was incised with a surgical scalpel to expose the skull. The coordinates of the bregma used as the origin (AP: 0, ML: 0, DV: 0) was determined, and the coordinates of the right medial forebrain bundle (AP: −4.4 mm, ML: 1.5 mm, DV: 7.8 mm from bregma) were measured. After inserting an injection tube for administration at the measured coordinates, 6-OHDA (9 μg/4 μL; Sigma-Aldrich) inducing dopaminergic denervation was topically injected. After 2 weeks from surgery, apomorphine hydrochloride hemihydrate (0.5 mg/kg; Wako Pure Chemical) was subcutaneously administered, and the rotation movement to the opposite side from the 6-OHDA injected site was observed. Rats with 7 rotations or more per minute were used as rats treated on one side with 6-OHDA.
To make a PD-LID model, a mixture of levodopa methyl ester hydrochloride (6 mg/kg; Sigma-Aldrich) dissolved in saline and benserazide hydrochloride (15 mg/kg; Sigma-Aldrich) (hereinafter, also referred to as “levodopa containing solution”) was intraperitoneally administered once daily to 6-OHDA-lesioned rats. The levodopa containing solution was repeated administered for 3 weeks or longer to observe and evaluate the behavior. The behavior was observed and evaluated in a transparent acrylic cage for 1 minute every 20 minutes after 20 minutes from the intraperitoneal administration of the levodopa containing solution, up until after 3 hours from administration. […] The sum of the scores for Limb AIMs, Axial AIMs, and Orolingual AIMs in 3 hours was used as the total AIMs score. Individuals with a total AIMs score of less than 10 were excluded from the test as not manifesting a dyskinesia-like symptom. […] The rats were assigned to each dosing group by using the 3 hour AIMs score, Locomotive behavior score, and rat body weight as indicators, which were used for evaluation of drugs.
When evaluating a tape agent, the hair on the abdominal region of rats was shaved before the evaluation date. […] After 4 hours from application, a levodopa containing solution was intraperitoneally administered to observe and evaluate the behavior. Individuals with 50% or more of the tape agent coming off during the test were excluded from analysis.
After 4 hours from application, a levodopa containing solution was intraperitoneally administered to observe and evaluate the behavior. Individuals with 50% or more of the tape agent coming off during the test were excluded from analysis.
When evaluating dyskinesia-like symptoms, the sum of the Limb AIMs, Axial AIMs, and Orolingual AIMs at each evaluation point was used as the AIMs score.

In experiment [2] the test system is rat Vogel conflict test model. Kind of experiment: Rat Vogel conflict test model (anxiolytic action). The following applies: non-clinical models, PD-LID effect in 6-OHDA-lesioned rats. In kind it is in vivo. The protocol: The anxiolytic action was evaluated using a rat Vogel conflict test model, and the effect on PD-LID was evaluated in 6-OHDA-lesioned rats.

For another experiment, the target named is dopamine 2 receptors (Homo sapiens, UniProt P14416). The settings on record: in vitro; cited from earlier work.
Where [3] appears, read: transdermal condition 1, 37 mg/kg, no stripping.
Setting [4] is: transdermal condition 2, 45 mg/kg, with stripping.

dopamine 2 receptors, sequence (P14416 whole entry): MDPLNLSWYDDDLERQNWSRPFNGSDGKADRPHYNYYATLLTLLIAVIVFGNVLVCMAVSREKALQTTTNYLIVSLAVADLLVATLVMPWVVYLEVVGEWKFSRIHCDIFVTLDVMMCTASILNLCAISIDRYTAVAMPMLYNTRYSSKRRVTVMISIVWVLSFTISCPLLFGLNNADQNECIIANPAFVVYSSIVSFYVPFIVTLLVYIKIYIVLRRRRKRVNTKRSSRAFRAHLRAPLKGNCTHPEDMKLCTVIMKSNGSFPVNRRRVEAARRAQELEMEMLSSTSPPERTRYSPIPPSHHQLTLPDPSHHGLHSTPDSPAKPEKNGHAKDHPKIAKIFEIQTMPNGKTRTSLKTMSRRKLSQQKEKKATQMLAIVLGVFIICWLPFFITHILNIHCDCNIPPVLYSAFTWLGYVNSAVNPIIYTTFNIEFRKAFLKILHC

For `O=C1[C@@H]2[C@H]3CC[C@H](C3)[C@@H]2C(=O)N1CCCCN1CCN(c2ncccn2)CC1` [tandospirone, (1R,2S,3R,4S)—N-[4-{4-(pyrimidine-2-yl)piperadine-1-yl}butyl]-2,3-bicyclo[2.2.1]heptanedicarboximide], the “difference (decrease) in total AIMs score in 3 hours, placebo tape agent minus tandospirone” value in experiment [1] (transdermal condition 1 (no stripping), 37 mg/kg) is on record as 17.7**; in experiment [1] (transdermal condition 2 (with stripping), 45 mg/kg), 27.1**. Moreover, the “(ii) Indicator of rebound symptom of dyskinesia, in words” value in experiment [1] (setting [3]) and in experiment [1] (setting [4]) was “No effect” in each case. In addition, the entries for the “(ii) Indicator of rebound symptom of dyskinesia: difference in total AIMs score in 100 to 180 minutes (placebo minus tandospirone)” value in experiment [1] (setting [3]) and in experiment [1] (setting [4]) were −0.1 and 0.9, respectively. For the same molecule, the “anxiolytic action compared with effect on PD-LID” value in experiment [2] was “exerted at the same dosage”. At dopamine 2 receptors, the “affinity in receptor binding” value is “low affinity”.
